# Measurements from patent US20180291070A1, “PEPTIDES, AND USES THEREOF” (priority 2015, published 2018).
# Test system: GLUT4
# Assay: GLUT4myc translocation in L6 myotubes
# Assay type: cell-based
# Details: 100 nM, 30 mins
# Text: We determined the effect of six synthetic peptides (SP1-6) and four peptide compositions on in vitro GLUT4 translocation using the L6 rat skeletal muscle cell line. A clone of the L6 cell line containing overexpression of GLUT4 tagged with a c-myc epitope (courtesy of Prof. Amira Klip, Hospital for Sick Children, Toronto) was used to investigate the efficacy of each synthetic peptide and peptide composition for effects on GLUT4 translocation in a dose-response design.
# L6-GLUT4myc cells were grown in 10% FBS and 2 μg/ml blasticidin. Cells were grown for 48-72 hours before being seeded in 24-well plates at 15,000 cells per well in 2% FBS and allowed to differentiate for 6 to 8 days prior to experimentation.
# L6-GLUT4myc cells were serum-starved for three hours prior to incubation with 100 nM of insulin for 30 mins, or 200, 20, 2.0 and 0.2 μM of SP, and 2, 1, 0.5 and 0.25 mg/ml of peptide composition for 3 hours respectively. A 3 hour incubation period was selected based on previous findings identifying that incubation with branch chain amino acid containing di-peptides for 3 hours increases glucose uptake in L6 myotubes 1. Treatments were staggered in order to determine GLUT4myc translocation at the same time point.
# The quantity of myc-tagged GLUT4 at the cell surface was measured by antibody-coupled colorimetric assay. Briefly, after incubation with either insulin for 30 mins or synthetic peptide or peptide composition for 3 hours respectively, L6-GLUT4myc cells were fixed via incubation with 3% paraformaldehyde (PFA). A 0.1 M glycine solution was then added to quench PFA and cells were blocked with 5% goat serum. The myotube monolayer was exposed to anti-myc antibody and then incubated with peroxidase conjugated donkey anti-mouse IgG. 1 mL of o-phenylenediamine dihydrochloride (OPD) reagent was added to each well and this reaction was stopped by adding […] of 3 M HCL. To determine GLUT4 translocation to cell surface, a measured aliquot of each condition was determined spectrophotometrically on a plate reader using absorbance at 492 nm.
# In addition to an untreated control, 100 nM insulin was utilised to stimulate a maximal GLUT4 translocation response i.e. a positive control in each experiment. […] Treatments were staggered so that all conditions (untreated, insulin and sample) were processed at the same time-point.
substance,measurement,value
insulin [reference compound],average increase in cell surface GLUT4 translocation compared to untreated control,1.72 fold
